Laboratory results as given in patent US5234922A, “Use of sulfonylureas and other potassium channel regulators to treat secretory diarrhea” (University of Iowa Research Foundation, priority 1992, dated 1993).
Counter-ions that a name gives are not always drawn. Like-named read-outs stand apart in the source and are kept apart here.

Biological target: T1, wild-type human CFTR (Homo sapiens, UniProt P13569)
T1 construct: expressed in transfected cells; host or cells: NIH 3T3 fibroblasts (stably infected with a retrovirus)
Experiment: Whole-cell patch-clamp recording of cAMP-activated CFTR Cl- currents in NIH 3T3 fibroblasts expressing recombinant CFTR
Assay type: cell-based
Details: for effect on baseline currents: before cAMP stimulation, n=3; for inhibition at 1000 µM: 1 mM; for effect on Cl- current previously activated by cAMP agonists: added to the bathing solution after activation; for relative potency of inhibition of CFTR Cl- currents: rank order among K+ channel openers

[1] = NIH3T3, 250 μM, 3 min after adding, currents activated by cAMP agonists
[2] = NIH3T3, 3 min after adding, currents activated by cAMP agonists

T1 sequence (P13569 whole entry): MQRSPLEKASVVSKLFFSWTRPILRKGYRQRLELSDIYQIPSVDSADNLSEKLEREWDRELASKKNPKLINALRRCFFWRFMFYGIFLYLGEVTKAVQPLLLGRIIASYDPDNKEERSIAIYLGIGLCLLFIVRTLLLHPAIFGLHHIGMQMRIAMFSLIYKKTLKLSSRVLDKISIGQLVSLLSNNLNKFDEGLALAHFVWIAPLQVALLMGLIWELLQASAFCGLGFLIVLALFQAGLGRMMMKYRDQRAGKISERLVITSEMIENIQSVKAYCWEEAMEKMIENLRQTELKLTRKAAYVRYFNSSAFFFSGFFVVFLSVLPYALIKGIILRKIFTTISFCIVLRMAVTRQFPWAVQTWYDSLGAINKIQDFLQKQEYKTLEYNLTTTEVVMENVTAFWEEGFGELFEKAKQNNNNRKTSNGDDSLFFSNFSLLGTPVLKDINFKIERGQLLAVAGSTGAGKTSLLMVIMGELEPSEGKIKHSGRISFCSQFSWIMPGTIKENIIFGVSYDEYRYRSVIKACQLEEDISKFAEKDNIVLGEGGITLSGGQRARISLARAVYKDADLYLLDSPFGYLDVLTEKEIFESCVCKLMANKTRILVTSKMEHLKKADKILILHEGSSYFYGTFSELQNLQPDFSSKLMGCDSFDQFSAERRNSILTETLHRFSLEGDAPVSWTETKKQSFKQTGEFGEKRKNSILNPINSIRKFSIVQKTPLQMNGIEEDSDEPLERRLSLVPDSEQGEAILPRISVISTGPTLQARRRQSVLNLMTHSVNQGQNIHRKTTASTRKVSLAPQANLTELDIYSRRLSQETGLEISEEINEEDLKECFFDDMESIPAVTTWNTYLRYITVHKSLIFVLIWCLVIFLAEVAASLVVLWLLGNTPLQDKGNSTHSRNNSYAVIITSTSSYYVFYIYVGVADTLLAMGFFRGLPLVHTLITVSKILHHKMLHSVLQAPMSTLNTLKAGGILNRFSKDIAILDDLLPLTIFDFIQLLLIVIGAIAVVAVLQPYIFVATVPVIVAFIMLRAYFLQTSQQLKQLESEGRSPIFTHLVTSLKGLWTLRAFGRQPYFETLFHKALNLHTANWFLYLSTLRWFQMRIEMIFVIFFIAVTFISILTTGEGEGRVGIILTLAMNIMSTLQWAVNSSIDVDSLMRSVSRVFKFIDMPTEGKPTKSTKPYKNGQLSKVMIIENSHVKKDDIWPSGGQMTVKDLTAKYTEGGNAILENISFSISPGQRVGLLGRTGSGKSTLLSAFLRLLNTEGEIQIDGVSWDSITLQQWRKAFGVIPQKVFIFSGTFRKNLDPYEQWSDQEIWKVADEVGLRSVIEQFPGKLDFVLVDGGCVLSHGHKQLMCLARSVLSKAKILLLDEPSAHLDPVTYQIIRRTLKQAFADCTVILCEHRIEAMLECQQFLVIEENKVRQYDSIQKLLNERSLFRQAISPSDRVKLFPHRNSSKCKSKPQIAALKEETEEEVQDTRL

SMILES: CC1=NS(=O)(=O)c2cc(Cl)ccc2N1 [diazoxide]
- effect on baseline currents (100-1,000 μM): no effect
- inhibition at 250 µM [1]: > 70%
- inhibition at 1000 µM [2]: > 70%
- effect on Cl- current previously activated by cAMP agonists: inhibited

SMILES: COc1ccc(Cl)cc1C(=O)NCCc1ccc(S(=O)(=O)NC(=O)NC2CCCCC2)cc1 [glibenclamide]
- inhibition at 100 µM (NIH3T3, read-out: inhibition of CFTR Cl- currents): > 90%
- reversibility of inhibition of CFTR Cl- currents on washing (prolonged washing): irreversible

SMILES: CC1(C)Oc2ccc(C#N)cc2[C@@H](N2CCCC2=O)[C@@H]1O [lemakalim]
- effect on baseline currents (250 μM): no effect
- inhibition at 250 µM [1]: > 70%
- effect on Cl- current previously activated by cAMP agonists: inhibited
- relative potency of inhibition of CFTR Cl- currents: more potent than diazoxide

SMILES: Nc1cc(N2CCCCC2)nc(N)[n+]1OS(=O)(=O)[O-] [minoxidil sulfate]
- effect on baseline currents (10-500 μM): no effect
- inhibition at 100 µM (NIH3T3, 100 μM, 3 min after adding, currents activated by cAMP agonists, read-out: inhibition of CFTR Cl- currents): > 70%
- effect on Cl- current previously activated by cAMP agonists: inhibited
- relative potency of inhibition of CFTR Cl- currents: more potent than lemakalim

SMILES: CCCCNC(=O)NS(=O)(=O)c1ccc(C)cc1 [tolbutamide]
- voltage dependence of inhibition of CFTR Cl- currents (500 μM): little voltage dependence
- effect on CFTR Cl- currents (500 μM, currents activated by cAMP agonists): inhibited
- inhibition at 1000 µM [2]: > 90%
- reversibility of inhibition of CFTR Cl- currents on washing (washes lasting >10 min): partially recovered
